Results from patent publication US11702409B2, “Pyrazolyl derivatives useful as anti-cancer agents” (NOVARTIS AG, priority 2019, dated 2023).

Biological target: KRasG12C (M1-K169, biotinylated on the N-terminus) (Homo sapiens (Human), UniProt P01116, G12C)
Assay: Covalent competition assay (scintillation proximity assay, competition with radiolabeled covalent probe Compound B)
Format: binding
Conditions: in vitro KRASG12C activity; 10 nM KRasG12C:GDP, 25 nM radio-ligand and 475 nM unlabelled ligand, incubated 2 hours; read-out: Covalent Competition Assay IC50
Method: The cells were lysed by 4 passages through an Avestin Emulsiflex at about 20000 psi and insoluble debris removed by centrifugation and filtered through a 0.45 μm Durapore membrane (Millipore). […] The protein in the flow through was subjected to a final polishing step on a HiLoad 16/60 Superdex 200 prep grade size-exclusion column pre-equilibrated with SEC-buffer (20 mM HEPES pH 7.4, 150 mM NaCl, 5 mM MgCl2, 1 μM GDP).
A scintillation proximity assay (SPA) was used to determine the potency of the compounds. This assay measures the ability of the test compound to compete with the radiolabeled covalent probe for binding to and covalently modify KRASG12C.
A serial dilution of the compounds to be tested is mixed with a fixed concentration of the radiolabeled covalent probe before incubation with KRASG12C:GDP as described below.
The reaction was started by addition of KRasG12C (M1-K169, biotinylated on the N-terminus) to the compounds and incubated for 2 hours with continuous agitation allowing for full modification of KRasG12C with probe or test compounds. […] The assay buffer contained 20 mM Tris-HCl pH 7.5 (Invitrogen), 150 mM NaCl (Sigma Aldrich), 0.1 mM MgCl2 (Sigma Aldrich), and 0.01% Tween-20 (Sigma Aldrich).
Evaluation was carried out using assay data analysis software (such as the standard Novartis in-house Helios software application, Novartis Institutes for BioMedical Research, unpublished) using the methods described in Formenko et al., Robust Regression for high-throughput screening.
Evaluation can also be carried out using commercially available software which is designed to derive IC50 values using 4-parameter fits (e.g. GraphPad Prism, XL fit).

| Structure (SMILES) | IC50 |
| --- | --- |
| C=CC(=O)N1CC2(CC(n3nc(-c4ccc(C(=O)NCCN(C)C)cc4)c(-c4c(Cl)c(C)cc5[nH]ncc45)c3C)C2)C1 (single isomer, unassigned) [Example 65b] | 17.4 µM |
| C=CC(=O)N1CC2(CC(n3nc(-c4ccc5nnccc5c4)c(-c4c(Cl)c(C)cc5[nH]ncc45)c3C)C2)C1 (single isomer, unassigned) [Example 71b, 1-(6-(4-(5-chloro-6-methyl-1H-indazol-4-yl)-3-(cinnolin-6-yl)-5-methyl-1H-pyrazol-1-yl)-2-azaspiro[3.3]heptan-2-yl)prop-2-en-1-one] | > 5 µM |
| C=CC(=O)N1CC2(CC(n3nc(-c4c(C)cncc4C)c(-c4c(Cl)c(C)cc5[nH]ncc45)c3C)C2)C1 (single isomer, unassigned) [Example 74b] | > 50 µM |
| C=CC(=O)N1CC2(CC(n3nc(-c4ccc(C#N)nc4)c(-c4c(Cl)c(C)cc5[nH]ncc45)c3C)C2)C1 (single isomer, unassigned) [Example 11b] | > 50 µM |
| C=CC(=O)N1CC2(CC(n3nc(-c4cc5ccncc5[nH]4)c(-c4c(Cl)c(C)cc5[nH]ncc45)c3C)C2)C1 (single isomer, unassigned) [Example 59b, 1-(6-(4-(5-chloro-6-methyl-1H-indazol-4-yl)-5-methyl-3-(1H-pyrrolo[2,3-c]pyridin-2-yl)-1H-pyrazol-1-yl)-2-azaspiro[3.3]heptan-2-yl)prop-2-en-1-one] | > 50 µM |
| C=CC(=O)N1CC2(CC(n3nc(-c4ccc(N5CCS(=O)(=O)CC5)cc4)c(-c4c(Cl)c(C)cc5[nH]ncc45)c3C)C2)C1 (single isomer, unassigned) [Example 50b, 1-(6-(4-(5-chloro-6-methyl-1H-indazol-4-yl)-3-(4-(1,1-dioxidothiomorpholino)phenyl)-5-methyl-1H-pyrazol-1-yl)-2-azaspiro[3.3]heptan-2-yl)prop-2-en-1-one] | 4.24 µM |
| C=CC(=O)N1CC2(CC(n3nc(-c4ccc(=O)n(C)c4)c(-c4c(Cl)c(C)cc5[nH]ncc45)c3C)C2)C1 (single isomer, unassigned) [Example 6b] | > 50 µM |
| C=CC(=O)N1CC2(CC(n3nc(-c4ccc(O)cc4F)c(-c4c(Cl)c(C)cc5[nH]ncc45)c3C)C2)C1 (single isomer, unassigned) [Example 58b] | > 5 µM |
| C=CC(=O)N1CC2(CC(n3nc(-c4ccc(C(=O)O)cc4)c(-c4c(Cl)c(C)cc5[nH]ncc45)c3C)C2)C1 (single isomer, unassigned) [Example 68b] | 1.9 µM |
| C=CC(=O)N1CC2(CC(n3nc(-c4cnn5c4CCC5)c(-c4c(Cl)c(C)cc5[nH]ncc45)c3C)C2)C1 (single isomer, unassigned) [Example 34b] | > 50 µM |
| C=CC(=O)N1CC2(CC(n3nc(-c4cccnc4)c(-c4c(Cl)ccc5[nH]ncc45)c3C)C2)C1 (single isomer, unassigned) [Example 19b] | > 50 µM |
| C=CC(=O)N1CC2(CC(n3nc(-c4cc(C)nn4CCN(C)C)c(-c4c(Cl)c(C)cc5[nH]ncc45)c3C)C2)C1 (single isomer, unassigned) [Example 92b] | 43 µM |
| C=CC(=O)N1CC2(CC(n3nc(-c4ccc(COCCOC)cc4)c(-c4c(Cl)c(C)cc5[nH]ncc45)c3C)C2)C1 (single isomer, unassigned) [Example 39b] | > 5 µM |
| C=CC(=O)N1CC2(CC(n3nc(-c4cncc(C#N)c4)c(-c4c(Cl)c(C)cc5[nH]ncc45)c3C)C2)C1 (single isomer, unassigned) [Example 10b] | > 50 µM |

Molecules with a lower IC50, results first:

| IC50 | Structure (SMILES) |
| --- | --- |
| 0.374 µM | C=CC(=O)N1CC2(CC(n3nc(-c4ccc5c(c4)N(C)CCO5)c(-c4c(Cl)c(C)cc5[nH]ncc45)c3C)C2)C1 (single isomer, unassigned) [Example 31b] |
| 0.008 µM | C=CC(=O)N1CC2(CC(n3nc(-c4ccc5nn(CCN6CC[C@H](F)C6)cc5c4)c(-c4c(Cl)c(C)cc5[nH]ncc45)c3C)C2)C1 (single isomer, unassigned) [Example 80b] |
| 0.112 µM | C=CC(=O)N1CC2(CC(n3nc(-c4cnc5c(cnn5C)c4)c(-c4c(Cl)c(C)cc5[nH]ncc45)c3C)C2)C1 (single isomer, unassigned) [Example 37a] |
| 0.335 µM | C=CC(=O)N1CC2(CC(n3nc(-c4cccnc4)c(-c4c(Cl)c(Cl)cc5[nH]ncc45)c3C(F)F)C2)C1 (single isomer, unassigned) [Example 85a] |
| 0.064 µM | C=CC(=O)N1CC2(CC(n3nc(-c4ccc(O)cc4F)c(-c4c(Cl)c(C)cc5[nH]ncc45)c3C)C2)C1 (single isomer, unassigned) [Example 58a] |
| 0.066 µM | C=CC(=O)N1CC2(CC(n3nc(-c4cnc5c(ccn5C)c4)c(-c4c(Cl)c(C)cc5[nH]ncc45)c3C)C2)C1 (single isomer, unassigned) [Example 8a] |
| 0.251 µM | C=CC(=O)N1CC2(CC(n3nc(-c4ccc5c(c4)CN(C)C5)c(-c4c(Cl)c(C)cc5[nH]ncc45)c3C)C2)C1 (single isomer, unassigned) [Example 75a] |
| 0.012 µM | C=CC(=O)N1CC2(CC(n3nc(-c4ccc5nn(CC(C)(C)O)cc5c4)c(-c4c(Cl)c(C)cc5[nH]ncc45)c3C)C2)C1 (single isomer, unassigned) [Example 42a, 1-(6-{(4M)-4-(5-Chloro-6-methyl-1H-indazol-4-yl)-3-[2-(2-hydroxy-2-methylpropyl)-2H-indazol-5-yl]-5-methyl-1H-pyrazol-1-yl}-2-azaspiro[3.3]heptan-2-yl)prop-2-en-1-one] |
| 0.941 µM | C=CC(=O)N1CC2(CC(n3nc(-c4ccc5nn(CCOC)cc5c4)c(-c4c(Cl)c(C)cc5[nH]ncc45)c3C)C2)C1 (single isomer, unassigned) [Example 41b] |
| 0.743 µM | C=CC(=O)N1CC2(CC(n3nc(-c4ccnc(C#N)c4)c(-c4c(Cl)c(C)cc5[nH]ncc45)c3C)C2)C1 (single isomer, unassigned) [Example 9a] |
| 0.24 µM | C=CC(=O)N1CC2(CC(n3nc(-c4ccc(C(=O)N(C)CCOC)cc4)c(-c4c(Cl)c(C)cc5[nH]ncc45)c3C)C2)C1 (single isomer, unassigned) [Example 66a, 4-(1-(2-acryloyl-2-azaspiro[3.3]heptan-6-yl)-4-(5-chloro-6-methyl-1H-indazol-4-yl)-5-methyl-1H-pyrazol-3-yl)-N-(2-methoxyethyl)-N-methylbenzamide] |
| 1.4 µM | C=CC(=O)N1CC2(CC(n3nc(-c4cc(C)nn4CCN(C)C)c(-c4c(Cl)c(C)cc5[nH]ncc45)c3C)C2)C1 (single isomer, unassigned) [Example 92a] |
| 1.2 µM | C=CC(=O)N1CC2(CC(n3nc(C4=CCC(F)(F)CC4)c(-c4c(Cl)c(C)cc5[nH]ncc45)c3C)C2)C1 (single isomer, unassigned) [Example 3b] |
| 1.2 µM | C=CC(=O)N1CC2(CC(n3nc(-c4ccc(=O)n(C)c4)c(-c4c(Cl)c(C)cc5[nH]ncc45)c3C)C2)C1 (single isomer, unassigned) [Example 6a] |
| 0.046 µM | C=CC(=O)N1CC2(CC(n3nc(-c4ccc(C(=O)NCCN(C)C)cc4)c(-c4c(Cl)c(C)cc5[nH]ncc45)c3C)C2)C1 (single isomer, unassigned) [Example 65a] |
| 0.059 µM | C=CC(=O)N1CC2(CC(n3nc(-c4ccc(C(=O)O)cc4)c(-c4c(Cl)c(C)cc5[nH]ncc45)c3C)C2)C1 (single isomer, unassigned) [Example 68a] |
| 0.032 µM | C=CC(=O)N1CC2(CC(n3nc(-c4ccc(COCCOC)cc4)c(-c4c(Cl)c(C)cc5[nH]ncc45)c3C)C2)C1 (single isomer, unassigned) [Example 39a] |
